For assay [1], the system named is HUVECs. Description: HUVEC adhesion on LB membranes of peptide-amphiphiles (Example 1). Type of assay: cell-based, human. Conditions: 1-72 hours, no serum. An excerpt: Surface preparation: Peptide-amphiphiles, listed in Table 1, were synthesized as described in the literature (Berndt et al., J. Am. Chem. Soc., 1995; 117:9515-9522). Langmuir-Blodgett (LB) membranes constructed from peptide-amphiphiles were deposited onto 15 mm mica disks as described elsewhere (Kokkoli et al., Langmuir, 2004; 20:2397-2404). Shortly before cell assays, the LB films were transferred into 24-well plates containing 1× phosphate buffered saline (PBS) solution (Mediatech), without exposing surfaces to air, as they rearrange to form multilayers (Hansma et al., Method. Cell Biol., 2002; 69:163-193). After equilibrating for 5-10 minutes, PBS was exchanged with 1 ml of MCDB-131 basal media (Sigma) supplemented with 0.1% bovine serum albumin (BSA) (Sigma) and antibiotics (Sigma) (2.5 μg/ml gentamicin, 2.5 μg/ml amphotericin B, 50 U/ml penicillin, and 50 μg/ml streptomycin), referred to as 0.1% BSA media. Surfaces were equilibrated at 37° C., 5% CO2 for 30-60 minutes before adding the cells. Human fibronectin-coated round coverslips (FN) 22 mm in diameter (BD Biosciences) were put into 12-well plates and 2 ml of 0.1% BSA media was added to each well. Surfaces were equilibrated for 30-60 minutes at 37° C., 5% CO2.
Cell culture: Human umbilical vein endothelial cells, HUVECs, (Cambrex Corporation) were cultured in MCDB-131 containing 20% fetal bovine serum (FBS) (Atlas Biologicals) at 37° C., 5% CO2. Other nutrients and antibiotics supplementing the media were added based on an optimal HUVEC proliferation study (Terramani et al., In Vitro Cell Dev. Biol.—Animal, 2000; 36:125-132). Media was changed in the culture flasks every other day. Cells used for adhesion and imaging studies were in passages 3-4.
Cell adhesion experiments: After cells became 90% confluent they were washed with PBS, trypsinized with 0.25% Trypsin-EDTA (Cambrex Corporation), neutralized with MCDB-131 with 2% FBS, and spun at 1000 rpm for 10 minutes. The supernatant was removed and the cell pellet was resuspended in 0.1% BSA media. Cells were counted with a hemocytometer and seeded onto LB and FN surfaces at a density of 497 cells/mm^2. Surfaces were incubated with cells in 0.1% BSA media at 37° C., 5% CO2, for 1, 4, 12, 24, 48, and 72 hours. Cell adhesion was quantified using the CyQuant Cell Proliferation Assay Kit, with a dye that binds to cellular nucleic acids, following the manufacturer's protocol (Molecular Probes). A calibration standard curve was created for each experiment. The plates were read on a SpectraMAX GeminiXS (Molecular Devices).

The test system of assay [2] is HUVECs. Put plainly: Actin cytoskeleton and focal adhesion staining. Type of assay: cell-based, human. Conditions: for Actin fibers and focal adhesion points: 12 hours. As for the experimental part:
Actin cytoskeleton and focal adhesion staining: Surface transferring, cell seeding, incubation, and fixing were done as described above. Staining for the actin cytoskeleton, focal adhesions, and nucleus of attached cells was done using the Actin Cytoskeleton and Focal Adhesion Staining Kit following the manufacturer's protocol (Chemicon Int.) and using 1:350 dilution for anti-vinculin antibody, 1:200 for the secondary antibody, approximately 1:1000 dilution (equivalent to 1 unit/surface) for TRITC-conjugated phalloidin and 1:1000 for DAPI. After washing, surfaces were mounted onto glass slides and stored at 4° C. protected from light. A confocal microscope (BIORAD Multiphoton Confocal 1024) was used for imaging.

Assay [3] has as its system HUVECs. Put plainly: Extracellular fibronectin production by HUVECs (Example 1). Conditions: for Fibronectin production by adhered HUVECs: 12 and 24 hours; for Fibronectin secretion by adhered HUVECs: after 48 hours. Type of assay: cell-based, human. As for the experimental part: (§1) Cell spreading and fibronectin production experiments: Surface transferring, cell seeding, and incubation were done in the same manner as in the adhesion experiment, with a cell density of 497 cells/mm^2, and incubation times of 1, 12, 24, 48, and 72 hour. At the end of each incubation, the surfaces were removed, washed with […] of PBS, and fixed in 1 ml of 4% paraformaldehyde (Sigma) in PBS for 15 minutes at 37° C., 5% CO2. After washing with PBS, surfaces were first labeled for secreted fibronectin: surfaces were subjected to a blocking solution (0.1% BSA in PBS) for 30 minutes, incubated for 1 hour with a primary antibody specific for secreted fibronectin (mouse anti-human fibronectin (P1H11) monoclonal antibody (Chemicon Int.) at a 1:500 dilution in blocking solution, and then for 45 minutes with a secondary antibody (IgG fluorescein (FITC) conjugated antibody; Chemicon Int.) at a 1:200 dilution in PBS. As a final step, cell membranes and nuclei were stained using the Image-iT™ LIVE Plasma Membrane and Nuclear Labeling Kit following the manufacturer's protocol for labeling fixed cells (Molecular Probes). After final washing, surfaces were mounted onto glass slides and stored at 4° C. protected from light. An inverted fluorescent microscope (Nikon Eclipse TE200 with Pixcell II LCM) was used for imaging. Fibronectin production was assessed visually, by comparing 10-20 fluorescence images from two samples for each substrate (two independent experiments performed at different days). Cell spreading was quantified from two samples per substrate (two independent experiments performed at different days) by measuring cell area with the NIH imaging software.

For assay [4], the system named is HUVECs. Put plainly: HUVEC spreading on substrates (cell area). The class given is cell-based, human. Conditions: for HUVEC spreading (cell area): 1-24 hours; for HUVEC spreading, rank among surfaces: all times examined, 1-72 hours. How it is done:
as §1

For assay [5], the target named is T1, integrin αvβ3 (Homo sapiens, UniProt P05106+P06756).
T1 construct: HUVECs were prepared and counted as described in the cell adhesion protocol; endogenous in cells; host or cells: HUVEC (human umbilical vein endothelial cells)
Put plainly: Adhesion blocking with anti-integrin αvβ3 antibody (LM609). Conditions: anti-αvβ3 antibody 20 μg/ml, 1 hour, HUVECs 249 cells/mm^2. The class given is cell-based.
Description: Adhesion blocking experiments: Blocking experiments were done using mouse anti-human integrin as (P1D6), β1 (P5D2), α5β1 (JBS5), and αvβ3 (LM609) monoclonal antibodies (Chemicon Int.). All surfaces were transferred to 24- or 12-well plates and pre-incubated in 0.1% BSA media as described above. HUVECs were prepared and counted as described in the cell adhesion protocol. Cells were blocked by mixing the cell suspension with the appropriate antibody in 0.1% BSA media, and incubating for 30 minutes at 37° C., 5% CO2 with constant agitation. Blocked cells were then released onto LB and FN surfaces and allowed to adhere for 1 hour at 37° C., 5% CO2. […] Following incubation, surfaces were washed, and adhered cells were quantified as described in the cell adhesion protocol.

Assay [6] deals with α5β1 integrin (Homo sapiens, UniProt P05556+P08648). Conditions: inferred from literature on polyglycine linkers (Petrie 2006); cited from earlier work.
Assay [7] has as its system HUVECs. Description: HUVEC adhesion timed experiments on LB membranes (Example 2). The class given is cell-based, human. How it is done:
Surface preparation: Each peptide-amphiphile was used to form homogenous LB membranes as in previous work (Kokkoli Langmuir 2004; 20:2397-2404), except that both the water and 15 mm mica disks used had been autoclaved for sterility. All depositions were done at a surface pressure between 41 and 47 mN/m, well below the collapse pressure and in the liquid-condensed or solid phase. Approximately 90 minutes before cells were seeded on the LB films to begin cell adhesion experiments, mica surfaces were transferred into 1× phosphate buffered saline (PBS), with particular care taken to ensure films were not exposed to air. After 5-10 minutes of equilibration, surfaces were transferred into 24-well plates containing a supplemented MCDB-131 basal media (Sigma), as described in Example 1. Following surface transfer, 24-well plates were moved to a 37° C., 5% CO2 incubator for 45-60 minutes. As a control, 22 mm diameter human fibronectin-coated coverslips (BD Biosciences), referred to as FN, were put into 12-well plates, covered with 2 ml of the supplemented media, and also incubated for 45-60 minutes.
Cell culture: Human umbilical vein endothelial cells, HUVECs (Cambrex Corporation), were cultured as described previously (see Example 1). Only cells from passage 3 were used in all studies.
Cell adhesion experiments: Flasks of HUVECs with at least 90% confluency were washed with 1×PBS, trypsinized with 0.25% Trypsin-EDTA (Fisher Scientific), and neutralized with 2% fetal bovine serum in MCDB-131 basal media. The suspended cells from all flasks were placed in one 50 ml centrifuge tube and centrifuged at 1000 rpm for 5 minutes. The media was removed and the cell pellet was resuspended in the supplemented media described above. A hemocytometer was used to count the cells and then 497 cells/mm^2 were seeded onto both LB and FN surfaces. Surfaces were incubated with cells at 37° C., 5% CO2 for 1, 4, or 12 hours. Cell adhesion following these times was determined using the CyQuant cell proliferation assay kit (Molecular Probes), which measures the fluorescence of a cellular nucleic acid-binding dye using the SpectraMAX GeminiXS plate reader (Molecular Devices). Standard calibration curves were created within each experiment for both 12- and 24-well plates.

Assay [8] concerns HUVECs. Put plainly: Fibronectin production staining (Example 2). The class given is cell-based, human. Conditions: 12 hours. As for the experimental part: Fibronectin production staining: Surface preparation, transfer, and cellular work were all done as described in the previous methods. Only surfaces incubated with cells for 12 hours were stained. The staining protocol, involving a primary antibody for secreted fibronectin (Chemicon), a FITC-conjugated secondary antibody (Chemicon), and the Image-iT LIVE plasma membrane and nuclear labeling kit (Molecular Probes), was done as previously described in Example 1. A single photon confocal microscope (Olympus FluoView FV1000) was used for imaging. Two slides per substrate were prepared each during 2 separate experiments and each slide was imaged 2-4 times. The final images chosen were all taken from one experiment for consistency, but were representative of the images obtained from both experiments.

Assay [9] has as its target T2, mouse α5β1 integrin on CT26.WT cells (mouse, UniProt P11688 45-1053; P09055 21-798).
T2 construct: whole, on cells; Endogenous on mouse colon carcinoma cells; also called integrin α5β1 expressing CT26.WT cells
Description: flow cytometry, liposomes on CT26.WT cells, 4 °C, 3 hrs. Background: A flow cytometer gives signals particle by particle.

For assay [10], the target named is T2, mouse α5β1 integrin on CT26.WT cells. Put plainly: flow cytometry, PR_b stealth liposomes on CT26.WT cells, 4 °C, 3 hrs.
Description: Tubes were incubated at 4° C. or 37° C. over a rotary shaker for the specified duration of time. Cells were then pelleted and washed twice in FB. Flow cytometric analysis was carried out immediately. For peptide blocking experiments, the protocol specified above was used except cells were incubated with 200 µg/ml of free peptide-amphiphile in FB for one hour prior to incubating the cells with the liposomes. […] All experiments were repeated twice but results are presented from a single experiment.

Entries after “also recorded” stand apart in the source; their conditions may differ. Primed or numbered codes have the meaning given here. Where no end group is shown, it is not given here. [ ]: non-standard residue; d: D form. (C16)2‑Glu‑C2″ = N-terminal tail: two C16 chains, glutamic acid linker, -(CH2)2- spacer; (C16)2‑Glu‑C2 = lipid tail; Abu = CC[C@H](N)C(=O)O

T2 sequence (P11688 45-1053, chain 1 of 2): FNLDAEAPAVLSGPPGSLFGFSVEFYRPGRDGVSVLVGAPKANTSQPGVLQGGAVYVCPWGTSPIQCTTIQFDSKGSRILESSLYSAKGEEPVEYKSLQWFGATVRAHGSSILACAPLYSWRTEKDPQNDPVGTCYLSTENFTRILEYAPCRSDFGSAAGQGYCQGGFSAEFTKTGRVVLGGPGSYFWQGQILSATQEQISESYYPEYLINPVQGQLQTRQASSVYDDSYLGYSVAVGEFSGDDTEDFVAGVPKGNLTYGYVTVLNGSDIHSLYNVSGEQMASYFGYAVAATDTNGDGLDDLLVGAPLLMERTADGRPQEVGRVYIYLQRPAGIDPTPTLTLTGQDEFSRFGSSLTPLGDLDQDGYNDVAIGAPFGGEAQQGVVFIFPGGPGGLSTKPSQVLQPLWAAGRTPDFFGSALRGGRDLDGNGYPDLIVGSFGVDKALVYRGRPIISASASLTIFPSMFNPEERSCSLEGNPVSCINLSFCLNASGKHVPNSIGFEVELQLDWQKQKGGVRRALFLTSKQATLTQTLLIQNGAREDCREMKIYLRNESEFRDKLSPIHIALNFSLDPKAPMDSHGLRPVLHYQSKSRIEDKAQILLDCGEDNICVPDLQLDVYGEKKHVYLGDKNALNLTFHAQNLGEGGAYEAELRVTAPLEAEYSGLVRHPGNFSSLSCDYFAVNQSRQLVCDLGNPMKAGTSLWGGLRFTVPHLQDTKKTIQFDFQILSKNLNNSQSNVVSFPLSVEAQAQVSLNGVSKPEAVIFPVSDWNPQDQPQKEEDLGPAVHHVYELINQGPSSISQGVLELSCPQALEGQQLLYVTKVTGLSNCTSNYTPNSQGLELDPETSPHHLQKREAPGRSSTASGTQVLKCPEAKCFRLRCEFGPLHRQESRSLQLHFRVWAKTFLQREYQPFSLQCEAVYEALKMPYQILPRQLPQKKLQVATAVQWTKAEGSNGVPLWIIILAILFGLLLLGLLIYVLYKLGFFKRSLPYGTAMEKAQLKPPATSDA
T2 sequence (P09055 21-798, chain 2 of 2): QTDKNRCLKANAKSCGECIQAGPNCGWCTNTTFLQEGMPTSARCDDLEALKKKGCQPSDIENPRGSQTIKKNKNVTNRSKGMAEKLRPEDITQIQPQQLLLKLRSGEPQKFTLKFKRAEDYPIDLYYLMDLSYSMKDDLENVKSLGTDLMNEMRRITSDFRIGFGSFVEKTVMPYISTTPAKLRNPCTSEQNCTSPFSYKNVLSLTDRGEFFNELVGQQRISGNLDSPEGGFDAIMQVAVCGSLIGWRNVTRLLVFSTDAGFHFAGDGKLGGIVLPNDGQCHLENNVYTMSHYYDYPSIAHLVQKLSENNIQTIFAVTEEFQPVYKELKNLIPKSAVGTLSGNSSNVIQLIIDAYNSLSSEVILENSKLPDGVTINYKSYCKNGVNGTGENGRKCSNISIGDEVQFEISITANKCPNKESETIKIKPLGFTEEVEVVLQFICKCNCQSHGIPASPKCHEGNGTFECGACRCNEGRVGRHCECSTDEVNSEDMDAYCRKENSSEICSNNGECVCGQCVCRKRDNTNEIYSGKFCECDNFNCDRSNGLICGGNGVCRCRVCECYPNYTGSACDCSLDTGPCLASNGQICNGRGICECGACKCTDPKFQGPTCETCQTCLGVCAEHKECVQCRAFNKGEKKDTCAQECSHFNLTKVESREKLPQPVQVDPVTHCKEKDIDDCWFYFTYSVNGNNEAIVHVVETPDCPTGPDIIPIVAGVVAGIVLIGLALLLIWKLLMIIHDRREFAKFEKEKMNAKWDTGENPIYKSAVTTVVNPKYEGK
α5β1 integrin, sequence (P08648 42-894 limits assumed): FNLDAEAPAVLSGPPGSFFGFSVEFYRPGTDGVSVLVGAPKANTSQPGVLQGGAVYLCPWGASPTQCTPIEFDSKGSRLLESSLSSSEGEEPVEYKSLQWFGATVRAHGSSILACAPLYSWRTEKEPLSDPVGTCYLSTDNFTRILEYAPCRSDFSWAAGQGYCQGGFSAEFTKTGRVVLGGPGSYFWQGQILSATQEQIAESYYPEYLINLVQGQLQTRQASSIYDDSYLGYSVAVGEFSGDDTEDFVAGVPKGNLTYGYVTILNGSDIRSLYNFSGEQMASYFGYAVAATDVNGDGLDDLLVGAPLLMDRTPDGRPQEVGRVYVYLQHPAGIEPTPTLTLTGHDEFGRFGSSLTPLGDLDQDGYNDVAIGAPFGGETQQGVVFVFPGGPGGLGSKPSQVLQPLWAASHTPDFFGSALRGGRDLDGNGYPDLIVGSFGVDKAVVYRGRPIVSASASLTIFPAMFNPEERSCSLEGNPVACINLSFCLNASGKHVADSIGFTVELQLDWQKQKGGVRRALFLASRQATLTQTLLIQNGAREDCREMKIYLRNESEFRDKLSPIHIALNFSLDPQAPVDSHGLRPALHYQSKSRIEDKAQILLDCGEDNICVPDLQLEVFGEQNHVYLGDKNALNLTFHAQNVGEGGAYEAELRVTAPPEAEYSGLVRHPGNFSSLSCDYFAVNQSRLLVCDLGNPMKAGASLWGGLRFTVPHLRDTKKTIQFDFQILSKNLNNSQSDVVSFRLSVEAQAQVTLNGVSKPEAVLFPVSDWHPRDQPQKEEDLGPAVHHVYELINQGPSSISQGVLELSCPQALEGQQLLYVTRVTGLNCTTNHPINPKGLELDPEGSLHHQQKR
α5β1 integrin, sequence (P08648 895-1049 partner limits assumed): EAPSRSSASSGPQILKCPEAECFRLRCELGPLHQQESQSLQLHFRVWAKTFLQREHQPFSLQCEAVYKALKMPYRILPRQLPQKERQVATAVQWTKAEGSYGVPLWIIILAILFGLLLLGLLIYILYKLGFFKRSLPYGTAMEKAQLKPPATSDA
α5β1 integrin, sequence (P05556 21-798): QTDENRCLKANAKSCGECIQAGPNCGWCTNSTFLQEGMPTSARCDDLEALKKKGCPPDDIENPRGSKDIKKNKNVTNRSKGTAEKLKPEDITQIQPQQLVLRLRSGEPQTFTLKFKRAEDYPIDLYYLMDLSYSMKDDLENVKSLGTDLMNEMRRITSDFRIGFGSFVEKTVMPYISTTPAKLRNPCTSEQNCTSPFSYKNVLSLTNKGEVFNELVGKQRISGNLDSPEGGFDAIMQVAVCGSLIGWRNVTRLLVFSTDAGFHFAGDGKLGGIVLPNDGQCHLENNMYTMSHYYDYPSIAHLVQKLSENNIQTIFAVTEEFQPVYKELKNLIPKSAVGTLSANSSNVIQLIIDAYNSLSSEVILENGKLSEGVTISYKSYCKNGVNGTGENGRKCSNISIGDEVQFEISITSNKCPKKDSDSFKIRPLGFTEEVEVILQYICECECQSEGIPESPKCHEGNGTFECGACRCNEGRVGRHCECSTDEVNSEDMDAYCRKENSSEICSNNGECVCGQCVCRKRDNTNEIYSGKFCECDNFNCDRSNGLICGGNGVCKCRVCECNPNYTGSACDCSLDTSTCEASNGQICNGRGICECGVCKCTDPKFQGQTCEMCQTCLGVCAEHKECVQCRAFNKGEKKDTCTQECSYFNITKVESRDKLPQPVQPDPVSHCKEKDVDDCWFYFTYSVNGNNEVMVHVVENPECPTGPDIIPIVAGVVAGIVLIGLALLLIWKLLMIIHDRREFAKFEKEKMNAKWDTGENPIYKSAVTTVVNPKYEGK

On to (C16)2-Glu-C2-GRGDSP, for which the “Ability of substrate to sustain HUVEC adhesion over time” value (“Ability of substrate … over time” for short) in assay [1] was “failed to sustain HUVEC adhesion after 48 hours; also recorded: failed to sustain cell adhesion after 48 hours”. Further, in [2], the “Focal adhesion contacts (vinculin)” value was “did not form strong focal adhesion contacts”; the “Actin fibers and focal adhesion points” value is reported as “some actin fiber formation”. Also, the Actin organization result in [2] (24 hours) is “actin organization became less pronounced”. Also, in assay [3], the “Fibronectin production by adhered HUVECs” value was “significantly less compared to FN and PR_b”; the “Fibronectin secretion by adhered HUVECs” value is listed as “minimal fibronectin secretion”. The “HUVEC spreading (cell area)” value in assay [4] is recorded as “higher compared to GRGESP, but much smaller than FN”. The “reduction in cell adhesion compared to adhesion of non-blocked cells” value in assay [5] is on record as 75.99±1.51%.
Consider “(C16)2-Glu-C2-GRGESP ({(C16)2‑Glu‑C2}-GRGESP) [negative control peptide-amphiphile]”, for which, in assay [1], the “Ability of substrate … over time” value is recorded as “failed to sustain cell adhesion after 48 hours”. The “Actin fibers and focal adhesion points” value in assay [2] is “no distinct actin fibers and very few focal adhesion points”. In addition, in assay [3], the “Fibronectin production by adhered HUVECs” value was “significantly less compared to FN and PR_b”; the “Fibronectin secretion by adhered HUVECs” value was “minimal fibronectin secretion”. Besides, in [4], the “HUVEC spreading (cell area)” value is given as “smallest”.
Regarding “(C16)2-Glu-C2-KSSPHSRNGGGGGGGGGGRGDSP ({(C16)2‑Glu‑C2}-KSSPHSRNGGGGGGGGGGRGDSP) [Pr_c]”, the “Specificity for the α5β1 integrin” value in assay [6] is given as “not specific to the α5β1 integrin”. The “HUVEC adhesion level (description)” value in [7] (1, 4 and 12 hours) is recorded as “high adhesion at 1 hour”. Also, the “Maintenance / decay of HUVEC adhesion over time” value in [7] (up to 12 hours) is “not maintained at longer time periods”.
For “(C16)2-Glu-C2-PHSRNSGSGSGSGRGDSP ({(C16)2‑Glu‑C2}-PHSRNSGSGSGSGRGDSP) [PR_a]”, the “Ability of substrate … over time” value in assay [1] is recorded as “effectively adhered”. Moreover, the “HUVEC adhesion compared with FN” value in [7] (1 hour) is listed as “no statistical difference”; in [7] (4 hours), “no difference in adhesion”; in [7] (12 hours) it was “statistically higher than FN”. Moreover, the “HUVEC spreading (cell area)” value in assay [4] is on record as “mostly spread”. Also, in [4], the “HUVEC spreading, rank among surfaces” value was “third”.
For the molecule “FN: Human fibronectin-coated round coverslips (BD Biosciences), positive control”, in assay [2] (1-72 hours), the “Actin stress fibers and focal contacts” value was “displayed actin stress fibers and focal contacts”. In addition, the “Fibronectin secretion by adhered HUVECs” value in [3] was “fully covered with secreted fibronectin”. Besides, in [8], the “Fibronectin (ECM) production by adhered HUVECs” value was “allow both cell adhesion and ECM production; also recorded: allowed attached cells to produce fibronectin”. In addition, in assay [4], the “HUVEC spreading (cell area)” value is “mostly spread” and the “HUVEC spreading, rank among surfaces” value is given as “second”.

B1: GRGDSP peptide-amphiphile (C16)2-Glu-C2-KAbuGRGDSPAbuK (peptide)
peptide: {(C16)2‑Glu‑C2}-K[Abu]GRGDSP[Abu]K
notes: also called GRGDSP-targeted liposomes; GRGDSP-functionalized liposomes
For B1, the binding result in assay [9] is “binds”.
Take {(C16)2‑Glu‑C2″}-KSSPHSRNSGSGSGSGSGRGDSP [PR_b peptide-amphiphile (C16)2-Glu-C2-KSSPHSRNSGSGSGSGSGRGDSP]: the “increase of binding against 2.5 mol % GRGDSP low PEG2000 liposomes” value in [9] is around 100 fold. In addition, in assay [10], the “reduction of binding against stealth liposomes with about 2.5 mol % PR_b” value was determined as 10 fold.

Values taken from US8343539B2, “Compounds that bind α5β1 integrin and methods of use” (Regents of the University of Minnesota, priority 2006, dated 2013).
